We go through 3 compounds from patent US10619138B2, “Herbicide-resistant hydroxyphenylpyruvate dioxygenases” (BASF SE, priority 2013, dated 2020).

SMILES strings stand for the structures.

The test system of assay [1] is Pontibacter HPPD (SEQ ID NO: 16). The assay can be described thus: In vitro HPPD activity assay, tolerance index. Type of assay: biochemical, Pontibacter sp. To be noted: normalized on Arabidopsis wild-type HPPD. As to the method: (§1) The activity assay for HPPD is based on the analysis of homogentisic acid by reversed phase HPLC.
(§2) The assay mixture can contain 150 mM potassium phosphate buffer pH 7.0, 50 mM L-ascorbic acid, 100 μM Catalase (Sigma-Aldrich), 1 μM FeSO4 and 0.2 units of purified HPPD enzyme in a total volume of 505 μl. 1 unit is defined as the amount of enzyme that is required to produce 1 nmol of HGA per minute at 20° C.
(§3) The reaction is allowed to proceed for 45 min at room temperature. The reaction is stopped by the addition of 50 μl of 4.5 M phosphoric acid. The sample is filtered using a […] pore size PVDF filtration device.
(§4) 5 μl of the cleared sample is analyzed on an UPLC HSS T3 column (particle size 1.8 μm, dimensions 2.1×50 mm; Waters) by isocratic elution using 90% 20 mM NaH2PO4 pH 2.2, 10% methanol (v/v).
(§5) HGA is detected electrochemically at 750 mV (mode: DC; polarity: positive) and quantified by integrating peak areas (Empower software; Waters).
(§6) Inhibitors are dissolved in DMSO (dimethylsulfoxide) to a concentration of 0.5 mM. From this stock solution serial five-fold dilutions are prepared in DMSO, which are used in the assay. The respective inhibitor solution accounts for 1% of the assay volume. Thus, final inhibitor concentrations range from 5 μM to 320 pM, respectively. Activities are normalized by setting the uninhibited enzyme activity to 100%. IC50 values are calculated using non-linear regression.
(§7) Using methods which are described in the above examples or well known in the art, purified, recombinant wildtype HPPD enzymes are characterized with respect to their kinetic properties and sensitivity towards HPPD inhibiting herbicides. Apparent michaelis constants (Km) and maximal reaction velocities (Vmax) are calculated by non-linear regression with the software GraphPad Prism 5 (GraphPad Software, La Jolla, USA) using a substrate inhibition model. […] Weighted means (by standard error) of Km and IC50 values are calculated from at least three independent experiments. The Cheng-Prusoff equation for competitive inhibition (Cheng, Y. C.; Prusoff, W. H. Biochem Pharmacol 1973, 22, 3099-3108) is used to calculate dissociation constants (Ki).
(§8) Field performance of the HPPD enzyme, which is used as a herbicide tolerance trait may depend not only on its lack of sensitivity towards HPPD inhibiting herbicides but also on its activity. To assess the potential performance of a herbicide tolerance trait a tolerance index (TI) is calculated using the following formula: […]
(§9) Easy comparison and ranking of each trait is enabled by normalizing tolerance indexes on Arabidopsis wild-type HPPD.

Assay [2] deals with Scenedesmus HPPD (SEQ ID NO: 4). The assay can be described thus: In vitro HPPD activity assay, tolerance index. The format is biochemical, Scenedesmus obliquus. To be noted: normalized on Arabidopsis wild-type HPPD. As to the method:
as §1, §2, §3, §4, §5, §6, §7, §8, §9

The subject of assay [3] is Mucilaginibacter HPPD (SEQ ID NO: 28). The assay can be described thus: In vitro HPPD activity assay, tolerance index. The format is biochemical, Mucilaginibacter paludis. To be noted: normalized on Arabidopsis wild-type HPPD. How it is done: as §1, §2, §3, §4, §5, §6, §7, §8, §9
For assay [4], the system named is Geodermatophilus HPPD (SEQ ID NO: 32). The assay can be described thus: In vitro HPPD activity assay, tolerance index. The format is biochemical, Geodermatophilus obscurus. To be noted: normalized on Arabidopsis wild-type HPPD. As to the method:
as §1, §2, §3, §4, §5, §6, §7, §8, §9

For assay [5], the system named is Algoriphagus HPPD (SEQ ID NO: 22). The assay is described as follows: In vitro HPPD activity assay, tolerance index. The format is biochemical, Algoriphagus machipongonensis. To be noted: normalized on Arabidopsis wild-type HPPD. How it is done:
as §1, §2, §3, §4, §5, §6, §7, §8, §9

In assay [6] the target is T1, Arabidopsis HPPD (SEQ ID NO: 42) (Arabidopsis thaliana, UniProt P93836).
T1 construct: Arabidopsis (42); His tag; made in house; host or cells: E. coli BL21 (DE3)
T1 sequence (P93836 1-445): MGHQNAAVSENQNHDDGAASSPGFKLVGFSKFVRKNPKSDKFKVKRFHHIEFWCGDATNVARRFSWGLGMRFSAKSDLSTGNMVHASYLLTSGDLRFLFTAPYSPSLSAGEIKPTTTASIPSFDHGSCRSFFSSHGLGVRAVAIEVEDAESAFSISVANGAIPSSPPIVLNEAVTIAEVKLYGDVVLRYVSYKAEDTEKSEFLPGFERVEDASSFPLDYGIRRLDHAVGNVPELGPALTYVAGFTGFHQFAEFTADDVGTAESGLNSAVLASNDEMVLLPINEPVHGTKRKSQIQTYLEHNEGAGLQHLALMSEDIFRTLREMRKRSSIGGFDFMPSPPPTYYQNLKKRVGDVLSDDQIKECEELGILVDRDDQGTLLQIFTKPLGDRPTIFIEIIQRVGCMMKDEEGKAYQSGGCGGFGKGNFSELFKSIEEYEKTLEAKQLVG
The assay can be described thus: In vitro HPPD activity assay (HGA by HPLC), wildtype enzyme characterization. As to conditions: normalized on Arabidopsis wild-type HPPD; reference enzyme. Type of assay: biochemical. As to the method:
as §1, §2, §3, §4, §5
Inhibitors are dissolved in DMSO (dimethylsulfoxide) to a concentration of 0.5 mM. From this stock solution serial five-fold dilutions are prepared in DMSO, which are used in the assay. The respective inhibitor solution accounts for 1% of the assay volume. […] Activities are normalized by setting the uninhibited enzyme activity to 100%. IC50 values are calculated using non-linear regression.
Using methods which are described in the above examples or well known in the art, purified, recombinant wildtype HPPD enzymes are characterized with respect to their kinetic properties and sensitivity towards HPPD inhibiting herbicides. Apparent michaelis constants (Km) and maximal reaction velocities (Vmax) are calculated by non-linear regression with the software GraphPad Prism 5 (GraphPad Software, La Jolla, USA) using a substrate inhibition model. […] Weighted means (by standard error) of Km and IC50 values are calculated from at least three independent experiments.
as §8, §9

For assay [7], the system named is Microscilla HPPD (SEQ ID NO: 20). The assay can be described thus: In vitro HPPD activity assay, tolerance index. The format is biochemical, Microscilla marina. To be noted: normalized on Arabidopsis wild-type HPPD. How it is done: as §1, §2, §3, §4, §5, §6, §7, §8, §9
Assay [8] deals with Nitritalea HPPD (SEQ ID NO: 14). The assay is described as follows: In vitro HPPD activity assay, tolerance index. The format is biochemical, Nitritalea halalkaliphila. As to conditions: normalized on Arabidopsis wild-type HPPD. As to the method: as §1, §2, §3, §4, §5, §6, §7, §8, §9
Assay [9] relates to Belliella HPPD (SEQ ID NO: 12). The assay can be described thus: In vitro HPPD activity assay, tolerance index. The format is biochemical, Belliella baltica. As to conditions: normalized on Arabidopsis wild-type HPPD. As to the method:
as §1, §2, §3, §4, §5, §6, §7, §8, §9

For assay [10], the system named is Herpetosiphon HPPD (SEQ ID NO: 26). The assay can be described thus: In vitro HPPD activity assay, tolerance index. Type of assay: biochemical, Herpetosiphon aurantiacus. As to conditions: normalized on Arabidopsis wild-type HPPD. How it is done:
as §1, §2, §3, §4, §5, §6, §7, §8, §9

Regarding `CCS(=O)(=O)c1cc(C(F)(F)F)ccc1C1=C(O)c2ncccc2C(C)(C)S1(=O)=O` [Inhibitor 5, 7-[2-ethylsulfonyl-4-(trifluoromethyl)phenyl]-5,5-dimethyl-6,6-dioxo-thiopyrano[4,3-b]pyridin-8-ol], the “TI (normalized tolerance index)” value in assay [1] came out at 2.5; in assay [2] it was 0.6; in assay [3], 5.2; in [4], 5.6; in [5] it was 24.7; in assay [6] it was 1. Further, the “TI (normalized tolerance index)” value in assay [7] is 17.7; in assay [8], 3.2; in assay [9], 10.6; in assay [10], 1.

`CC(=O)N(C)c1c(Cl)ccc(C2=C(O)c3ncccc3C(C)(C)S2(=O)=O)c1Cl` [Inhibitor 6, N-[2,6-dichloro-3-(8-hydroxy-5,5-dimethyl-6,6-dioxo-thiopyrano[4,3-b]pyridin-7-yl)phenyl]-N-methyl-acetamide]: the “TI (normalized tolerance index)” value in assay [1] came out at 1.5; in assay [2], 0.3; in assay [3], 3.1; in assay [4], 3.4; in [5], 29.7; in assay [6], 1. The “TI (normalized tolerance index)” value in [7] is 14.7; in [9], 7.6; in assay [10], 1.2.

In the case of `COCCOCc1nc(C(F)(F)F)ccc1C(=O)C1=C(O)C2CCC(C2)C1=O` (centres unmarked) [Inhibitor 3, 2-hydroxy-3-[2-(2-methoxyethoxymethyl)-6-(trifluoromethyl)pyridine-3-carbonyl]bicyclo[3.2.1]oct-2-en-4-one], the “TI (normalized tolerance index)” value in assay [1] worked out at 1.7; in [2] it was 0.9; in [3], 6.9; in [4], 7.4; in [5], 29; in assay [6] it was 1. For the same compound, the “TI (normalized tolerance index)” value was found to be 6.7 in assay [7], 1.1 in [8], 10 in assay [9] and 2 in assay [10].
